Assay results reported in patent publication EP0176913A2, “Glycourethane derivatives, methods for their preparation and their use” (BEHRINGWERKE Aktiengesellschaft, priority 1984, dated 1986).

System: Erdnußlectin (Arachis Hypogea)
Assay: Inhibition of peanut lectin haemagglutination of neuraminidase-treated erythrocytes
Type: cell-based
Settings: compound at 0,5 mg/ml; erythrocytes as 2,5% suspension; lectin titer 2-^8
Method: Inhibition von Erdnußlectin (Arachis Hypogea) mit Verbindung 29
Die Hämagglutination von Neuraminidase(VCN)-behandelten Erythrozyten (als 2,5%-ige Suspension) mit Erdunßlectin (Titer 2-^8) wurde vollständig mit Verbindung 29 (0,5 mg/ml) inhibiert.

CC(=O)N[C@H]1[C@@H](OC(=O)N[C@@H](CO)C(=O)NCCCCCC(=O)O)O[C@H](CO)[C@H](O)[C@@H]1O[C@@H]1O[C@H](CO)[C@H](O)[C@H](O)[C@H]1O [Verbindung 29, N-((2-Acetamido-2-desoxy-3-0-(8-D-galactopyranosyl)-alpha-D-galactopyranosyl)-oxycarbonyl)-L-seryl-S-carboxy-pentylamid]
Hämagglutination von Neuraminidase(VCN)-behandelten Erythrozyten mit Erdunßlectin inhibiert: vollständig
